Results as given in patent US6387950B2, “Treatment of tumors with RARα selective retinoid compounds in combination with other anti-tumor agents” (Allergan Sales, Inc., priority 2000, dated 2002).

Biological target: T1, RARβ receptors (Homo sapiens, UniProt P10826)
T1 sequence (P10826 183-417 limits assumed): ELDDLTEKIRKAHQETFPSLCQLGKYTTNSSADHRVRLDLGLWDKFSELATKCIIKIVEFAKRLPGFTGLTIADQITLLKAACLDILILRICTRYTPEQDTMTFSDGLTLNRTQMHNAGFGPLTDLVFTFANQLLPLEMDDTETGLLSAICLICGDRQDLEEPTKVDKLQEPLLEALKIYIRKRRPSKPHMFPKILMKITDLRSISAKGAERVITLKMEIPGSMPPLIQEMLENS
Assay: chimeric receptor transactivation assay, RARβ
Type: cell-based
Details: agonist activity
From the text: For example, a chimeric receptor transactivation assay which tests for agonist-like activity in the RARα, RARβ, RARγ, RXRα receptor subtypes, and which is based on work published by Feigner P. L. and Holm M. (1989) Focus, 112 is described in detail in U.S. Pat. No. 5,455,265. The specification of U.S. Pat. No. 5,455,265 is hereby expressly incorporated by reference.
The results obtained in this assay are expressed in EC50 numbers, as they are also in the chimeric receptor transactivation assay.

EC50: > 10 µM
Structure (SMILES): CC1(C)CCC(C)(C)c2c1cc(C(=O)Nc1cc(F)c(C(=O)O)c(F)c1)c(O)c2Cl [Compound 2, 2,6-Difluoro-4-[(3-hydroxy-4-chloro-5,5,8 8-tetramethyl-5,6,7,8-tetrahydronaphthalene-2-carbonyl) -amino]-benzoic acid]
